Consider 31 compounds from US8435980B2 (AbbVie Inc., priority 2009, dated 2013).

What is called pKi is the Ki on a negative log10 scale, so that one unit is a factor of ten.

The structures appear in SMILES notation. pKi: −log10 of the molar value. Where only a bound is given, the exact number is not on record here.

The target of this experiment is T1, Cdc7 (BEV coexpressed huCDC7/DBF4) (Homo sapiens, UniProt O00311).
T1 construct: made in house; host or cells: BEV (baculovirus expression vector) co-expression; insect cells are implied but no cell line is named
T1 sequence (O00311 whole entry): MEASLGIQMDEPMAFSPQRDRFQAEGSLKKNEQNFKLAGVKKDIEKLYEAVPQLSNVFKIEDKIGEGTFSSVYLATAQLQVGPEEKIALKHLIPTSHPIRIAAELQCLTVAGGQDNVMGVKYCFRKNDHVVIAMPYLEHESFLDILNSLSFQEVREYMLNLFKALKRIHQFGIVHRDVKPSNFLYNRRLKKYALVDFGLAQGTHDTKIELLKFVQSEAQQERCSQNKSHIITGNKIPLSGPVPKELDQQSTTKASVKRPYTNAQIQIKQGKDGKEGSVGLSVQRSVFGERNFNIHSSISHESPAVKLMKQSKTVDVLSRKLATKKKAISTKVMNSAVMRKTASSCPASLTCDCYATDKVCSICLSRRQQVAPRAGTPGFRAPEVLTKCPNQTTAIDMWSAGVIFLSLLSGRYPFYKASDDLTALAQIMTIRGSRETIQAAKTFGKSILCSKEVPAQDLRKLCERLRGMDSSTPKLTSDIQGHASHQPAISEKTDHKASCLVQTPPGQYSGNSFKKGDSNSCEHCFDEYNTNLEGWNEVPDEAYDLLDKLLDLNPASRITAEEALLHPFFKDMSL
T1 sequence (Q9UBU7 whole entry partner): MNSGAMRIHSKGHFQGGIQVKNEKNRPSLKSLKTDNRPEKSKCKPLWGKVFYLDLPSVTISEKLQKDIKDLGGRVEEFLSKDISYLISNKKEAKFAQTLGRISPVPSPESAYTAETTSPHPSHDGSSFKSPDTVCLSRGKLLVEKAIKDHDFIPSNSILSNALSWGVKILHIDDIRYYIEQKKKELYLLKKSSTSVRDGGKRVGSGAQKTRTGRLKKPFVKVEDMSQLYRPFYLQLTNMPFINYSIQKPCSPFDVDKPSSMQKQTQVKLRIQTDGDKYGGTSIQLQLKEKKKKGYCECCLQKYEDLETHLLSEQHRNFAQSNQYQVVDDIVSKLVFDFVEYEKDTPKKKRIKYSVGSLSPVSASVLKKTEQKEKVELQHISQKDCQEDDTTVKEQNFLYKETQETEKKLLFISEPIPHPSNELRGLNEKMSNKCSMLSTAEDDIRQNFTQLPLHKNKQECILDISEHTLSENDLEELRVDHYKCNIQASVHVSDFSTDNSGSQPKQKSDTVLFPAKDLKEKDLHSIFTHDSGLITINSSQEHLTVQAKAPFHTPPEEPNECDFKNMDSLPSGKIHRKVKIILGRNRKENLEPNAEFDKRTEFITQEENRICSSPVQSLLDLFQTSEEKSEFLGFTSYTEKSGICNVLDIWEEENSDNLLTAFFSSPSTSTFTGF
The experiment can be described thus: Cdc7 enzyme inhibition assay ([33P]ATP, biotinylated peptide substrate, FlashPlate). It is filed as biochemical. The conditions noted are these: Table 3; enzyme inhibition data (Ki). As to the method: Cdc7 (BEV coexpressed huCDC7/DBF4) is prepared internally. Cdc7 assays are conducted as follows with final concentrations as listed. […] Reactions are quenched after 1 hr by the addition of 90 μL stop buffer (50 mM EDTA, 2M NaCl). […] (Ki) for exemplary compounds.
Compound `O=C(NCCS(=O)(=O)N[C@H]1CC[C@H](Nc2cc(-c3c[nH]c4ncccc34)cc(Cl)n2)CC1)c1ccccc1` [Example 193, N-{2-[(trans-4-{[6-chloro-4-(1H-pyrrolo[2,3-b]pyridin-3-yl)pyridin-2-yl]amino}cyclohexyl)sulfamoyl]ethyl}benzamide] showed a negative logarithm of the Ki (pKi) above 8.00. Turning to `CS(=O)(=O)NCCS(=O)(=O)N[C@H]1CC[C@H](Nc2cc(-c3c[nH]c4ncccc34)cc(Cl)n2)CC1` [Example 194, N-(trans-4-{[6-chloro-4-(1H-pyrrolo[2,3-b]pyridin-3-yl)pyridin-2-yl]amino}cyclohexyl)-2-[(methylsulfonyl)amino]ethanesulfonamide], the pKi was above 8.00. The value for `Clc1cc(-c2c[nH]c3ncc(OCCN4CCOCC4)cc23)cc(NC2CCCCC2)n1` [Example 195, 6-chloro-N-cyclohexyl-4-{5-[2-(morpholin-4-yl)ethoxy]-1H-pyrrolo[2,3-b]pyridin-3-yl}pyridin-2-amine] was above 8.00; that for `Cn1cncc1COc1cnc2[nH]cc(-c3cc(Cl)nc(NC4CCCCC4)c3)c2c1` [Example 196, 6-chloro-N-cyclohexyl-4-{5-[(1-methyl-1H-imidazol-5-yl)methoxy]-1H-pyrrolo[2,3-b]pyridin-3-yl}pyridin-2-amine] was above 8.00. In turn, `CN1CCC(C2CCC(Nc3cc(-c4c[nH]c5ncccc45)cc(Cl)n3)CC2)C1` (stereo not shown) [Example 197, 6-chloro-N-[4-(1-methylpyrrolidin-3-yl)cyclohexyl]-4-(1H-pyrrolo[2,3-b]pyridin-3-yl)pyridin-2-amine] had a negative-log Ki (pKi) above 8.00. Take `Fc1ccc(CN2CCC(C3CCC(Nc4cc(-c5c[nH]c6ncccc56)cc(Cl)n4)CC3)C2)cc1` (stereo not shown) [Example 198, 6-chloro-N-{4-[1-(4-fluorobenzyl)pyrrolidin-3-yl]cyclohexyl}-4-(1H-pyrrolo[2,3-b]pyridin-3-yl)pyridin-2-amine]: the pKi was above 8.00. Consider `CS(=O)(=O)N1CCC(C2CCC(Nc3cc(-c4c[nH]c5ncccc45)cc(Cl)n3)CC2)C1` (stereo not shown) [Example 199, 6-chloro-N-{4-[1-(methylsulfonyl)pyrrolidin-3-yl]cyclohexyl}-4-(1H-pyrrolo[2,3-b]pyridin-3-yl)pyridin-2-amine], for which the negative-log Ki (pKi) is above 8.00. The value for `Clc1cc(-c2c[nH]c3ncccc23)cc(NC2CCN(C3CCC(NC4CCC4)CC3)CC2)n1` (stereo not shown) [Example 200, 6-chloro-N-{1-[4-(cyclobutylamino)cyclohexyl]piperidin-4-yl}-4-(1H-pyrrolo[2,3-b]pyridin-3-yl)pyridin-2-amine] was above 8.00; that for `N#Cc1cnc2[nH]cc(-c3cc(Cl)nc(NC4CCCCC4)c3)c2c1` [Example 201, 3-[2-chloro-6-(cyclohexylamino)pyridin-4-yl]-1-1H-pyrrolo[2,3-b]pyridine-5-carbonitrile] was 7.00 to 8.00; that for `O=C(N[C@H]1CC[C@H](Nc2cc(-c3c[nH]c4ncccc34)cc(Cl)n2)CC1)c1ccc(F)cc1F` [Example 202, N-(trans-4-{[6-chloro-4-(1H-pyrrolo[2,3-b]pyridin-3-yl)pyridin-2-yl]amino}cyclohexyl)-2,4-difluorobenzamide] was above 8.00. `O=C(N[C@H]1CC[C@H](Nc2cc(-c3c[nH]c4ncccc34)cc(Cl)n2)CC1)c1ccc(OC(F)(F)F)cc1` [Example 203, N-(trans-4-{[6-chloro-4-(1H-pyrrolo[2,3-b]pyridin-3-yl)pyridin-2-yl]-amino}cyclohexyl)-4-(trifluoromethoxy)benzamide] showed a negative logarithm of the Ki (pKi) of 7.00 to 8.00.

Consider `Cc1cnc2[nH]cc(-c3cc(Cl)nc(NC4CCCCC4)c3)c2c1` [Example 204, 6-chloro-N-cyclohexyl-4-(5-methyl-1H-pyrrolo[2,3-b]pyridin-3-yl)pyridin-2-amine], for which the pKi is above 8.00. The compound `Clc1cc(-c2c[nH]c3ncccc23)cc(Nc2ccccc2)n1` [Example 205, 6-chloro-N-phenyl-4-(1H-pyrrolo[2,3-b]pyridin-3-yl)pyridin-2-amine] gave a pKi above 8.00. The value for `COc1cc(N2CCC(N3CCN(C)CC3)CC2)ccc1Nc1cc(-c2c[nH]c3ncccc23)cc(Cl)n1` [Example 206, 6-chloro-N-{2-methoxy-4-[4-(4-methylpiperazin-1-yl)piperidin-1-yl]phenyl}-4-(1H-pyrrolo[2,3-b]pyridin-3-yl)pyridin-2-amine] was above 8.00.

`O=C(N[C@H]1CC[C@H](Nc2cc(-c3c[nH]c4ncccc34)cc(Cl)n2)CC1)C1CN(Cc2ccc(Cl)cc2)C1` [Example 207, 1-(4-chlorobenzyl)-N-(trans-4-{[6-chloro-4-(1H-pyrrolo[2,3-b]pyridin-3-yl)pyridin-2-yl]amino}cyclohexyl)azetidine-3-carboxamide] gave a pKi above 8.00. The value for `C=CCNC(=O)NCCS(=O)(=O)N[C@H]1CC[C@H](Nc2cc(-c3c[nH]c4ncccc34)cc(Cl)n2)CC1` [Example 208, N-(trans-4-{[6-chloro-4-(1H-pyrrolo[2,3-b]pyridin-3-yl)pyridin-2-yl]amino}cyclohexyl)-2-[(prop-2-en-1-ylcarbamoyl)amino}ethanesulfonamide] was above 8.00; that for `O=C(N[C@H]1CC[C@H](Nc2cc(-c3c[nH]c4ncccc34)cc(Cl)n2)CC1)C1CN(Cc2cccnc2)C1` [Example 209, N-(trans-4-{[6-chloro-4-(1H-pyrrolo[2,3-b]pyridin-3-yl)pyridin-2-yl]amino}cyclohexyl)-1-(pyridin-3-ylmethyl)azetidine-3-carboxamide] was above 8.00; that for `O=C(N[C@H]1CC[C@H](Nc2cc(-c3c[nH]c4ncccc34)cc(Cl)n2)CC1)C1CN(Cc2ccc(F)cc2F)C1` [Example 210, N-(trans-4-{[6-chloro-4-(1H-pyrrolo[2,3-b]pyridin-3-yl)pyridin-2-yl]amino}cyclohexyl)-1-(2,4-difluorobenzyl)azetidine-3-carboxamide] was above 8.00. The compound `Cn1ccc(CN2CC(C(=O)N[C@H]3CC[C@H](Nc4cc(-c5c[nH]c6ncccc56)cc(Cl)n4)CC3)C2)n1` [Example 211, N-(trans-4-{[6-chloro-4-(1H-pyrrolo[2,3-b]pyridin-3-yl)pyridin-2-yl]amino}cyclohexyl)-1-[(1-methyl-1H-pyrazol-3-yl)methyl]azetidine-3-carboxamide] had a negative-log Ki (pKi) above 8.00. As to `OCCn1cc(-c2cnc3[nH]cc(-c4cc(Cl)nc(NC5CCCCC5)c4)c3c2)cn1` [Example 212, 2-(4-{3-[2-chloro-6-(cyclohexylamino)pyridin-4-yl]-1H-pyrrolo[2,3-b]pyridin-5-yl}-1H-pyrazol-1-yl)ethanol], the negative-log Ki (pKi) is above 8.00. Regarding `COc1cnc2[nH]cc(-c3cc(Cl)nc(N[C@H]4CC[C@H](N)CC4)c3)c2c1` [Example 213, trans-N-[6-chloro-4-(5-methoxy-1H-pyrrolo[2,3-b]pyridin-3-yl)pyridin-2-yl]cyclohexane-1,4-diamine], the negative logarithm of the Ki (pKi) is above 8.00. As to `Clc1cc(-c2c[nH]c3ncc(-c4cccnc4)cc23)cc(NC2CCCCC2)n1` [Example 214, 6-chloro-N-cyclohexyl-4-[5-(pyridin-3-yl)-1H-pyrrolo[2,3-b]pyridin-3-yl]pyridin-2-amine], the pKi is above 8.00. For `Clc1cc(-c2c[nH]c3ncc(-c4ccsc4)cc23)cc(NC2CCCCC2)n1` [Example 215, 6-chloro-N-cyclohexyl-4-[5-(thiophen-3-yl)-1H-pyrrolo[2,3-b]pyridin-3-yl]pyridin-2-amine], the pKi is 7.00 to 8.00. The value for `COc1cnc2[nH]cc(-c3cc(Cl)nc(N[C@H]4CC[C@H](NC(=O)C5CC5)CC4)c3)c2c1` [Example 216, N-(trans-4-{[6-chloro-4-(5-methoxy-1H-pyrrolo[2,3-b]pyridin-3-yl)pyridin-2-yl]amino}cyclohexyl)cyclopropanecarboxamide] was above 8.00; that for `COc1cnc2[nH]cc(-c3cc(Cl)nc(N[C@H]4CC[C@H](NC(=O)C5CN(Cc6ccccc6)C5)CC4)c3)c2c1` [Example 217, 1-benzyl-N-(trans-4-{[6-chloro-4-(5-methoxy-1H-pyrrolo[2,3-b]pyridin-3-yl)pyridin-2-yl]amino}cyclohexyl)azetidine-3-carboxamide] was above 8.00; that for `COc1cnc2[nH]cc(-c3cc(Cl)nc(N[C@H]4CC[C@H](NS(=O)(=O)C5CC5)CC4)c3)c2c1` [Example 218, N-(trans-4-{[6-chloro-4-(5-methoxy-1H-pyrrolo[2,3-b]pyridin-3-yl)pyridin-2-yl]amino}cyclohexyl)cyclopropanesulfonamide] was above 8.00. In turn, `COc1cnc2[nH]cc(-c3cc(Cl)nc(N[C@H]4CC[C@H](NS(C)(=O)=O)CC4)c3)c2c1` [Example 220, N-(trans-4-{[6-chloro-4-(5-methoxy-1H-pyrrolo[2,3-b]pyridin-3-yl)pyridin-2-yl]amino}cyclohexyl)methanesulfonamide] gave a pKi above 8.00. The value for `CN1CCN(Cc2cccc(-c3cnc4[nH]cc(-c5cc(Cl)nc(NC6CCCCC6)c5)c4c3)c2)CC1` [Example 221, 6-chloro-N-cyclohexyl-4-(5-{3-[(4-methylpiperazin-1-yl)methyl]phenyl}-1H-pyrrolo[2,3-b]pyridin-3-yl)pyridin-2-amine] was above 8.00. Compound `NS(=O)(=O)c1cccc(-c2cnc3[nH]cc(-c4cc(Cl)nc(NC5CCCCC5)c4)c3c2)c1` [Example 222, 3-{3-[2-chloro-6-(cyclohexylamino)pyridin-4-yl]-1H-pyrrolo[2,3-b]pyridin-5-yl}benzenesulfonamide] had a pKi above 8.00.

`NS(=O)(=O)c1ccc(-c2cnc3[nH]cc(-c4cc(Cl)nc(NC5CCCCC5)c4)c3c2)cc1` [Example 223, 4-{3-[2-chloro-6-(cyclohexylamino)pyridin-4-yl]-1H-pyrrolo[2,3-b]pyridin-5-yl}benzenesulfonamide] showed a negative-log Ki (pKi) above 8.00. The value for `CCOc1cnc2[nH]cc(-c3cc(Cl)nc(N[C@H]4CC[C@H](N)CC4)c3)c2c1` [Example 224, trans-N-[6-chloro-4-(5-ethoxy-1H-pyrrolo[2,3-b]pyridin-3-yl)pyridin-2-yl]cyclohexane-1,4-diamine] was above 8.00.
